Source: BindingDB's records for doi:10.3109/14756366.2011.555944 (Aristotle University of Thessaloniki, 2011)

Molecular target: T1, Seed linoleate 13S-lipoxygenase-1 (Glycine max, UniProt P08170)
T1 sequence (P08170 whole entry): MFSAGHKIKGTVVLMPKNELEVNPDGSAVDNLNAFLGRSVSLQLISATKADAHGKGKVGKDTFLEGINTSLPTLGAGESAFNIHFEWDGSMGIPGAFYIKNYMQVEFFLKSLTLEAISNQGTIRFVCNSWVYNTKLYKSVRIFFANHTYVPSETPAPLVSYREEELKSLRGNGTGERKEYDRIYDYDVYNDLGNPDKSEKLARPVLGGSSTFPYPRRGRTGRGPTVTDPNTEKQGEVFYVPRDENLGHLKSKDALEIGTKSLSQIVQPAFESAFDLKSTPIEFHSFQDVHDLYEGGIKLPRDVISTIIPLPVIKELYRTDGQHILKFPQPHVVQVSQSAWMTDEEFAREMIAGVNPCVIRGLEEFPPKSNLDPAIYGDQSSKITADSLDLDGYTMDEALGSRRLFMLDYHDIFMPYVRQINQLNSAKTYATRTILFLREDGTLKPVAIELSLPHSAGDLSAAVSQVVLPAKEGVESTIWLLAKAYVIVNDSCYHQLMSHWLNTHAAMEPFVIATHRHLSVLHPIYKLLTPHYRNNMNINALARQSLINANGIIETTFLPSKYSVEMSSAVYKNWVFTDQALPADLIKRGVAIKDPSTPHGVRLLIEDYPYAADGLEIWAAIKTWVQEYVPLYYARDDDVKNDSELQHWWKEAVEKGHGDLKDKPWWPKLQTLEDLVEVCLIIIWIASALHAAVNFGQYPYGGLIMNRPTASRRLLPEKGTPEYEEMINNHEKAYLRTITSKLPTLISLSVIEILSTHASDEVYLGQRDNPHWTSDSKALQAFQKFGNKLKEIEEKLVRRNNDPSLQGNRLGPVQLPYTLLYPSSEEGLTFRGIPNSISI
Experiment: In Vitro LOX Inhibition Assay
Conditions: 25 °C

| IC50 [µM] | SMILES |
| --- | --- |
| 180 | Cc1cc(=O)oc2c3c(ccc12)OCC=CC3 [4-Methyl-8,11-dihydro-2H-oxepino[2,3-h]chromen-2-one (7b)] |
| 310 | O=c1ccc2ccc3c(c2o1)CC=CCO3 [8,11-Dihydro-2H-oxepino[2,3-h]chromen-2-one (7a)] |
